Source: patent US20230295068A1, “NOVEL CYCLOALKENONE COMPOUND OR SALT THEREOF” (TAIHO PHARMACEUTICAL CO., LTD., priority 2020, published 2023)

Test system: ND3 neuronal cell line
Assay: Measurement of nerve growth stimulation effect (neurite bearing assay, neurite length assay, number of cells)
Type: cell-based
Conditions: relative cell number, DMSO well = 1; for Number of cells: ND3 cells, 6 h; for viability at 1 µM / viability at 3 µM / viability at 5 µM / viability at 10 µM / viability at 30 µM / viability at 100 µM: 6 hours
Method: To evaluate the nerve growth stimulation effect, neurite bearing assay (proportion of neurite-bearing cells) and neurite length assay (neurite length) were analyzed with reference to the method of Topalli et al. (Brain Research 1030 (2004), pp. 116-124).
An ND3 neuronal cell line (European Collection of Authenticated Cell Cultures) was seeded in a DMEM medium containing 10% fetal bovine serum (0.6×10^4 cells/1 mL) in a 24-well plate. 24 hours later, the medium of seeded cells was removed, and a solution in which the compound of the present disclosure that was sequentially diluted in dimethyl sulfoxide (DMSO) was adjusted in DIEM containing 0.1% bovine serum albumin so that the DMSO final concentration was 0.1%, was added to cells (evaluation performed in duplicate). After six hours from the addition, the proportion of neurite-bearing cells (the number of cells having a neurite longer than the diameter of the cell body/number of total cells), and the neurite length per cell were analyzed. The number of total cells, proportion of neurite-bearing cells, and neurite length per cell were analyzed using a MetaMorph Neurite Outgrowth Application Module (Molecular Devices Japan K.K.). The number of cells was defined as the relative cell number, taking the number of cells per well containing DMSO as 1. The relative activity of each compound when the maximum activity of 3-(15-methoxypentadecyl)-2,4,4-trimethylcyclohexa-2-en-1-one (compound 24) in each test was defined as 1 is shown (Table 9). For the compounds for which multiple tests were conducted, the average value was shown. Data with a number of cells of 0.5 or more was also used. Accordingly, if the number of cells was less than 0.5, the neurite length per cell and the proportion of neurite-bearing cells were defined as “-”.

Number of cells (1 μM compound) | Number of cells (3 μM compound) | Number of cells (5 μM compound) | Number of cells (10 μM compound) | Number of cells (30 μM compound) | Number of cells (100 μM compound) | Compound | viability at 1 µM [%] | viability at 3 µM [%] | viability at 5 µM [%] | viability at 10 µM [%] | viability at 30 µM [%] | viability at 100 µM [%]
0.74 | 0.75 | 0.71 | 0.73 | 0.60 | 0.26 | CC1=C(CCCCCCCCCCCCCCC(N)=O)C(C)(C)CC1=O [Compound 74, 15-(2,5,5-trimethyl-3-oxocyclopent-1-en-1-yl)pentadecanamide] | – | – | – | – | – | –
0.84 | 0.91 | 0.91 | 0.86 | 0.79 | 0.73 | COCCCCCCCCCCCCC1=C(C)C(=O)CC1(C)C [Compound 70, 3-(12-methoxydodecyl)-2,4,4-trimethylcyclopent-2-en-1-one] | – | – | – | – | – | –
– | – | – | – | – | – | CC1=C(CCCCCCCCCCCCCCCOc2ccccc2)C(C)(C)CCC1=O [Compound 51, 3-(15-phenoxypentadecyl)-2,4,4-trimethylcyclohex-2-en-1-one] | 107 | 103 | 93 | 93 | 96 | 94
– | – | – | – | – | – | CNC(=O)CCCCCCCCCCCCCCC1=C(C)C(=O)CCC1(C)C [Compound 33, N-methyl-15-(2,6,6-trimethyl-3-oxocyclohex-1-en-1-yl)pentadecanamide] | 92 | 90 | 83 | 86 | 91 | 80
– | – | – | – | – | – | CCOC(=O)OCCCCCCCCCCCCCCCC1=C(C)C(=O)CCC1(C)C [Compound 57, ethyl (15-(2,6,6-trimethyl-3-oxocyclohex-1-en-1-yl)pentadecyl) carbonate] | 96 | 93 | 86 | 90 | 97 | 100
– | – | – | – | – | – | COCCCCCCCCCCCCC1=C(C)C(=O)CCC1(C)C [Compound 11, 3-(12-methoxydodecyl)-2,4,4-trimethylcyclohex-2-en-1-one] | 96 | 96 | 83 | 82 | 62 | 70
0.92 | 0.89 | 0.80 | 0.75 | 0.94 | 0.93 | COCCCCCCCCCCCCCCCC1=C(C)C(=NO)CCC1(C)C [Compound 67, 3-(15-methoxypentadecyl)-2,4,4-trimethylcyclohex-2-en-1-one oxime] | – | – | – | – | – | –
– | – | – | – | – | – | COCCCCCCCCCCCCCCCC1=C(C)C(=O)CCC12CC2 [Compound 44, 4-(15-methoxypentadecyl)-5-methylspiro[2,5]oct-4-en-6-one] | 83 | 90 | 82 | 75 | 91 | 89
– | – | – | – | – | – | COCCCCCCCCCCCCCCCC1=C(C)C(=O)CC1 [Compound 45, 3-(15-methoxypentadecyl)-2-methylcyclopent-2-en-1-one] | 94 | 90 | 74 | 83 | 71 | 75
– | – | – | – | – | – | CC1=C(CCCCCCCCCCCCCCCOC2CCCCO2)C(C)(C)CCC1=O (stereo not shown) [Compound 6, 2,4,4-trimethyl-3-(15-((tetrahydro-2H-pyran-2-yl)oxy)pentadecyl)cyclohex-2-en-1-one, reference compound] | 97 | 85 | 67 | 64 | 72 | 92
– | – | – | – | – | – | CC1=C(CCCCCCCCCCCCOC(C)C)C(C)(C)CCC1=O [Compound 13, 3-(12-isopropoxydodecyl)-2,4,4-trimethylcyclohex-2-en-1-one] | 91 | 87 | 75 | 73 | 34 | 18
– | – | – | – | – | – | CC1=C(CCCCCCCCCCCCCCOC(C)C)C(C)(C)CCC1=O [Compound 23, 3-(14-isopropoxytetradecyl)-2,4,4-trimethylcyclohex-2-en-1-one] | 103 | 112 | 98 | 95 | 98 | 102
– | – | – | – | – | – | CC1=C(CCCCCCCCCCCCCCCCOC(C)C)C(C)(C)CCC1=O [Compound 31, 3-(16-isopropoxyhexadecyl)-2,4,4-trimethylcyclohex-2-en-1-one] | 99 | 93 | 75 | 77 | 84 | 93
1.05 | 1.09 | 0.86 | 0.87 | 1.05 | 1.09 | COCCCCCCCCCCCCCCCC1=C(C)C(O)CCC1(C)C (stereo not shown) [Compound 65, 3-(15-methoxypentadecyl)-2,4,4-trimethylcyclohex-2-en-1-ol] | – | – | – | – | – | –
– | – | – | – | – | – | [2H]C([2H])([2H])OCCCCCCCCCCCCCCCC1=C(C)C(=O)CCC1(C)C [Compound 27, 3-(15-(methoxy-d3)pentadecyl)-2,4,4-trimethylcyclohex-2-en-1-one] | – | 90 | 87 | 83 | 83 | 88
– | – | – | – | – | – | CCCOCCCCCCCCCCCCC1=C(C)C(=O)CCC1(C)C [Compound 14, 2,4,4-trimethyl-3-(12-propoxydodecyl)cyclohex-2-en-1-one] | 98 | 98 | 91 | 95 | 95 | 75
1.15 | 1.11 | 0.80 | 0.79 | 0.39 | 0.04 | COCCCCCCCCCCCCCCCC1=C(C)C(N)CCC1(C)C (stereo not shown) [Compound 66, 3-(15-methoxypentadecyl)-2,4,4-trimethylcyclohex-2-en-1-amine] | – | – | – | – | – | –
– | – | – | – | – | – | CCOCCCCCCCCCCCCCCCC1=C(C)C(=O)CCC1(C)C [Compound 25, 3-(15-ethoxypentadecyl)-2,4,4-trimethylcyclohex-2-en-1-one] | 97 | 103 | 97 | 97 | 98 | 94
0.80 | 0.93 | 0.96 | 0.88 | 0.96 | 0.53 | COCCCCCCCCCCCCCCCC1=C(C)CCCC1(C)C [Compound 64, 2-(15-methoxypentadecyl)-1,3,3-trimethylcyclohex-1-ene] | – | – | – | – | – | –
– | – | – | – | – | – | COCCCCCCCCCCCCCCCC1=CC(=O)CCC1(C)C [Compound 39, 3-(15-methoxypentadecyl)-4,4-dimethylcyclohex-2-en-1-one] | 83 | 100 | – | 97 | 97 | 49
– | – | – | – | – | – | CC1=C(CCCCCCCCCCCCCCCOC(=O)N(C)C)C(C)(C)CCC1=O [Compound 36, 15-(2,6,6-trimethyl-3-oxocyclohex-1-en-1-yl)pentadecyl dimethylcarbamate] | 91 | 107 | 97 | 94 | 98 | 86
0.89 | 0.89 | 0.75 | 0.80 | 0.70 | 0.47 | COCCCCCCCCCCCCCCCC1=C(C)C(=O)CC1(C)C [Compound 69, 3-(15-methoxypentadecyl)-2,4,4-trimethylcyclopent-2-en-1-one] | – | – | – | – | – | –
– | – | – | – | – | – | CC1=C(CCCCCCCCCCCCCCC(N)=O)C(C)(C)CCC1=O [Compound 32, 15-(2,6,6-trimethyl-3-oxocyclohex-1-en-1-yl)pentadecanamide] | 92 | 93 | 81 | 81 | 54 | 9
– | – | – | – | – | – | CCOCCCCCCCCCCCCCCC1=C(C)C(=O)CCC1(C)C [Compound 22, 3-(14-ethoxytetradecyl)-2,4,4-trimethylcyclohex-2-en-1-one] | 114 | 103 | 94 | 103 | 99 | 97
